The values below come from patent publication US8343892B2 (priority 2003, dated 2013).

The assay has as its system Phytophthora infestans. The class given is in vivo. The conditions noted are these: tomato (Marmande), 48 h preventive, assessed 5 days after contamination; lower line = chlorothalonil dose (in mixture or alone).

With `N#Cc1c(Cl)c(Cl)c(Cl)c(C#N)c1Cl` [Chlorothalonil, tetrachloroisophthalonitrile], the “ED70, Practical doses for 70% efficacy: dose of chlorothalonil” value is 16.1 µg/mL and the “ED90, Practical doses for 90% efficacy: dose of chlorothalonil” value is 36.7 µg/mL.
